Among the test systems are CCRF-CEM; IGROV-1; PC-3; MCF7; K562; SF-295; ACHN; HL-60; SNB-75; HOP-92; M14; 786-0; MOLT-4; HCT-116; NCI-H23; DU-145; Hs-578T; Malme-3M; UACC-62; BT-549.
What all share (assay): NCI-60 cell line screen, 48 h

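1) Cells in 96-well plates. 2) Compound, 48 h, 5 concentrations. 3) Linear interpolation between surrounding doses. 4) Unreached endpoint = highest concentration. The concentration for 50% growth inhibition is given as GI50.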 The source made the active and inactive calls. No stated cut-off is given here; in the data, active = GI50 up to about 1.1 µM and inactive = higher.

Turning to `CC1=NN(c2cccc(Cl)c2)C(=N/c2nc3ccccc3s2)/C1=C\c1ccccc1O`, the GI50 in the experiment with CCRF-CEM was 35.9 µM (inactive); in the experiment with IGROV-1 it was 19.7 µM (inactive); in the experiment with PC-3, 20.5 µM (inactive); in the experiment on MCF7, 29.3 µM (inactive); in the experiment with K562, 37 µM (inactive); with SF-295 it was 30.5 µM (inactive). In addition, the GI50 was 25.6 µM (inactive) with ACHN; 28.1 µM (inactive) with HL-60; 25.4 µM (inactive) with SNB-75; 24.4 µM (inactive) with HOP-92; 38 µM (inactive) in the experiment with M14; 30.1 µM (inactive) in the experiment on 786-0. Further, the GI50 in the experiment on MOLT-4 is 34.2 µM (inactive); with HCT-116, 26.7 µM (inactive); in the experiment with NCI-H23 it was 27.5 µM (inactive); with DU-145, 43.8 µM (inactive); in the experiment with Hs-578T it was 22 µM (inactive).

Turning to `NCC#CCNCCCN1CC1`, the GI50 with IGROV-1, in the experiment with PC-3, with MCF7, with K562, in the experiment with SF-295 and with ACHN was > 100 µM (inactive) each time. The GI50 in the experiment on HL-60 was > 100 µM (inactive); in the experiment on SNB-75, < 0.01 µM (active); in the experiment with HOP-92, > 100 µM (inactive); with Malme-3M, > 100 µM (inactive); with M14, > 100 µM (inactive); in the experiment with 786-0, > 100 µM (inactive). In addition, the GI50 with HCT-116, in the experiment with NCI-H23, in the experiment with DU-145, in the experiment on UACC-62 and with Hs-578T was > 100 µM (inactive) throughout.

With `O=[N+]([O-])/C(C(Cl)=C(Cl)Cl)=C(\N1CCOCC1)n1nnc2ccccc21`, the GI50 in the experiment with PC-3 is 17.1 µM (inactive); in the experiment on MCF7, 19.7 µM (inactive); in the experiment on SF-295, 17.7 µM (inactive); in the experiment with ACHN, 18.7 µM (inactive); in the experiment with SNB-75, 17.5 µM (inactive); with HOP-92 it was 18.3 µM (inactive). For the same compound, the GI50 in the experiment on Malme-3M was 18.4 µM (inactive); in the experiment on M14, 17.2 µM (inactive); in the experiment with 786-0 it was 22 µM (inactive); in the experiment with MOLT-4, 33.5 µM (inactive); in the experiment with HCT-116, 18.7 µM (inactive); in the experiment on NCI-H23, 16.7 µM (inactive). Also, the results for the GI50 with BT-549, with DU-145 and in the experiment with UACC-62 were 19 µM (inactive), 18.1 µM (inactive) and 23.3 µM (inactive), respectively.

`Oc1c(Cl)c(Cl)c(O)c(CCNc2nccs2)c1Cl`: the GI50 with CCRF-CEM is 3.74 µM (inactive); with IGROV-1 it was 3.27 µM (inactive); in the experiment on PC-3 it was 17.2 µM (inactive); with MCF7, 2.41 µM (inactive); with K562, 4.58 µM (inactive); in the experiment with SF-295 it was 19.1 µM (inactive). Besides, the GI50 in the experiment with ACHN is 6.44 µM (inactive); with HL-60 it was 6.84 µM (inactive); in the experiment with SNB-75, 20.5 µM (inactive); with HOP-92, 32.4 µM (inactive); in the experiment with Malme-3M, 27.4 µM (inactive); with M14 it was 15.7 µM (inactive). Also, the GI50 is 16.9 µM (inactive) in the experiment on 786-0; 48.8 µM (inactive) in the experiment on MOLT-4; 7.66 µM (inactive) in the experiment with HCT-116; 18.4 µM (inactive) in the experiment on NCI-H23; 3.67 µM (inactive) with DU-145; 17.1 µM (inactive) in the experiment with UACC-62.

Regarding `CNC(=O)CNC(=O)CCC(=O)OC`, the GI50 in the experiment with PC-3, in the experiment with MCF7, in the experiment with K562, with SF-295, in the experiment on ACHN and in the experiment on M14 was > 100 µM (inactive) in each case. Besides, the GI50 in the experiment with 786-0, in the experiment with MOLT-4, with HCT-116, in the experiment on NCI-H23, with DU-145 and in the experiment on UACC-62 was > 100 µM (inactive) each time.

For `NN=C1/C(=C\c2ccccc2)CCC/C1=C/c1ccccc1`, the GI50 was 20.1 µM (inactive) with CCRF-CEM; 39.1 µM (inactive) with IGROV-1; 20.4 µM (inactive) with K562; 45.3 µM (inactive) in the experiment with SF-295; 27.4 µM (inactive) in the experiment on ACHN; 20.3 µM (inactive) in the experiment on HL-60. For the same compound, the GI50 is 17.7 µM (inactive) in the experiment with SNB-75; 25.7 µM (inactive) with HOP-92; 22.4 µM (inactive) in the experiment with Malme-3M; 41.6 µM (inactive) in the experiment on M14; 39.5 µM (inactive) with 786-0; 17.9 µM (inactive) with MOLT-4. Also, the GI50 was 30.8 µM (inactive) in the experiment with HCT-116, 36.9 µM (inactive) with NCI-H23 and 40.3 µM (inactive) in the experiment on UACC-62.

Consider `CC/C(CC(=O)CCC(=O)Nc1ccc(C)c(C)c1)=N\NC(=O)C(N)=O`, for which the GI50 in the experiment on CCRF-CEM, in the experiment with IGROV-1, in the experiment with K562, in the experiment on SF-295, with ACHN and in the experiment on HL-60 was > 100 µM (inactive) in each case. For the same compound, the GI50 in the experiment on SNB-75, with HOP-92, in the experiment with Malme-3M, in the experiment on M14, in the experiment on 786-0 and in the experiment on MOLT-4 was > 100 µM (inactive) in each case. Moreover, the GI50 with HCT-116, in the experiment on NCI-H23 and in the experiment on UACC-62 was > 100 µM (inactive) throughout.

As for `O=S(=O)(NCn1ccc2ccccc21)c1ccccc1`, the GI50 with CCRF-CEM was > 88.5 µM (inactive); with IGROV-1 it was > 100 µM (inactive); in the experiment with K562, > 100 µM (inactive); in the experiment on SF-295, > 100 µM (inactive); with ACHN, 97.5 µM (inactive); in the experiment with HL-60 it was 22.4 µM (inactive). Moreover, the GI50 with SNB-75, with HOP-92, in the experiment with Malme-3M, in the experiment on M14, with 786-0 and in the experiment with MOLT-4 was > 100 µM (inactive) each time. Besides, the GI50 is 49.3 µM (inactive) with HCT-116, > 100 µM (inactive) in the experiment with NCI-H23 and > 73.8 µM (inactive) with UACC-62.

Turning to `Fc1ccc2c3c([nH]c2c1)CCN(Cc1ccccc1)C3`, the GI50 with CCRF-CEM is 30.4 µM (inactive); with IGROV-1 it was 20.7 µM (inactive); in the experiment on MCF7, 16.7 µM (inactive); in the experiment with K562, 18.1 µM (inactive); in the experiment on SF-295, 14.7 µM (inactive); in the experiment with ACHN, 22.8 µM (inactive). For the same compound, the GI50 is 17.3 µM (inactive) with HL-60; 16.9 µM (inactive) with SNB-75; 5.33 µM (inactive) with HOP-92; 18.4 µM (inactive) with Malme-3M; 17.3 µM (inactive) in the experiment with M14; 16.1 µM (inactive) in the experiment on 786-0. The GI50 with MOLT-4 was 17.3 µM (inactive); with HCT-116 it was 18.6 µM (inactive); in the experiment on NCI-H23, 20.9 µM (inactive); with DU-145, 22.3 µM (inactive); in the experiment on UACC-62 it was 18.2 µM (inactive); with Hs-578T, 12 µM (inactive).

For the compound `Cc1ccc2ccccc2c1NC1=NCCO1`, the GI50 is 70.3 µM (inactive) in the experiment with CCRF-CEM; > 100 µM (inactive) with IGROV-1; 82 µM (inactive) in the experiment on MCF7; 56.9 µM (inactive) in the experiment on K562; > 100 µM (inactive) in the experiment on SF-295; 76.6 µM (inactive) in the experiment on ACHN. Further, the GI50 with HL-60 is 58.5 µM (inactive); in the experiment with SNB-75, > 100 µM (inactive); in the experiment on HOP-92, 11.8 µM (inactive); in the experiment on Malme-3M, > 100 µM (inactive); with M14, > 100 µM (inactive); with 786-0 it was > 100 µM (inactive). In addition, the GI50 with MOLT-4 is 34 µM (inactive); with HCT-116 it was 45.5 µM (inactive); with NCI-H23, 90.4 µM (inactive); in the experiment on DU-145 it was > 100 µM (inactive); with UACC-62, > 100 µM (inactive); in the experiment with Hs-578T it was 24.9 µM (inactive).

Regarding `O=C1NC2C(=O)N(Cc3ccccc3)C(=O)C2N1` (stereo not drawn), the GI50 in the experiment with CCRF-CEM, with IGROV-1, in the experiment with K562, in the experiment on SF-295, in the experiment on ACHN and in the experiment with HL-60 was > 100 µM (inactive) in each case. Moreover, the GI50 with SNB-75 was > 100 µM (inactive); in the experiment on HOP-92, > 100 µM (inactive); with Malme-3M it was > 100 µM (inactive); in the experiment on M14 it was 37.8 µM (inactive); with 786-0, > 100 µM (inactive); with MOLT-4, > 100 µM (inactive). Moreover, the GI50 in the experiment with HCT-116, with NCI-H23 and with UACC-62 was > 100 µM (inactive) in each case.

`COc1ccc(S(=O)(=O)Nc2ccc(-c3csc(N4C(=O)/C(=C/c5ccccc5[N+](=O)[O-])N=C4c4ccccc4)n3)cc2)cc1Cl`: the GI50 with IGROV-1 was 16.1 µM (inactive); in the experiment with PC-3, 32.6 µM (inactive); in the experiment with MCF7 it was 66.8 µM (inactive); in the experiment with K562, 39.5 µM (inactive); with SF-295 it was 47 µM (inactive); in the experiment on ACHN it was 50.5 µM (inactive). Further, the GI50 in the experiment with HL-60 is 23.2 µM (inactive); with SNB-75 it was > 100 µM (inactive); in the experiment on HOP-92, 23.3 µM (inactive); in the experiment with Malme-3M, 58.9 µM (inactive); in the experiment with M14 it was 24.4 µM (inactive); in the experiment with 786-0 it was > 100 µM (inactive). Further, the GI50 with MOLT-4 is 29.9 µM (inactive); in the experiment on HCT-116 it was 38.8 µM (inactive); in the experiment with NCI-H23, 20.8 µM (inactive); with DU-145, 83 µM (inactive); in the experiment on UACC-62, 34.3 µM (inactive); in the experiment on Hs-578T, 40.4 µM (inactive).

These data come from ChEMBL document CHEMBL1201862, “PubChem BioAssay data set” (2004).
